Source: patent US20170349593A1, “BTK INHIBITORS” (MERCK SHARP & DOHME CORP., priority 2014, published 2017)

Experiments:
[1] = molecular target: T1, BTK enzyme (recombinant full-length BTK, hBTK) (Homo sapiens, UniProt Q06187); assay: Btk enzyme activity assay (LANCE TR-FRET); type: biochemical; conditions: 50 pM hBTK, 25 μM ATP, 60 minute compound and enzyme incubation, concentration range 1 μM to 0.017 nM, read-out: BTK binding IC50
T1 construct: recombinant protein from baculovirus-transfected S 19 cells: full-length BTK, 6 HIS-tag cleaved; 6 HIS-tag (cleaved yes); made in house
T1 sequence (Q06187 whole entry): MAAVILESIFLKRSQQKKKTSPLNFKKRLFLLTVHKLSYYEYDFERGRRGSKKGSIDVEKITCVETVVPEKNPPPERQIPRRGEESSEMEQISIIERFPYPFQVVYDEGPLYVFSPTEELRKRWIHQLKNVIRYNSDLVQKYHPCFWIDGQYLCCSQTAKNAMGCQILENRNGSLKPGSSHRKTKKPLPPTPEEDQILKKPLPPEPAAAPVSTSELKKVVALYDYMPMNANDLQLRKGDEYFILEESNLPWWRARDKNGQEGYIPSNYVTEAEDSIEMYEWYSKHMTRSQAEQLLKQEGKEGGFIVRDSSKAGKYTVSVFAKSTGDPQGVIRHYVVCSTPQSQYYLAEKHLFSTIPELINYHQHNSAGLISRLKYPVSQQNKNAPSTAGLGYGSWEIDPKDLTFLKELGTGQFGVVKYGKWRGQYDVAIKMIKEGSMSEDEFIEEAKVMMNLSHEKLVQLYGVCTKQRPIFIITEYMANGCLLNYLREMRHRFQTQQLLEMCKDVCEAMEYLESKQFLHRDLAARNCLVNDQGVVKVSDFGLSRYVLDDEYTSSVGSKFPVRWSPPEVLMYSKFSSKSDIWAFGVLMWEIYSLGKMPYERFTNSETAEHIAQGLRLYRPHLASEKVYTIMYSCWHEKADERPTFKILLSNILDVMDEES

[2] = tested on: adenosine uptake into HeLa cells; assay: [3H]Adenosine uptake assay; type: cell-based; conditions: Homo sapiens; accumulation of [3H]adenosine into HeLa cells; concentration range 10 μM to 0.032 nM; read-out: ADU inhibition IC50
Protocol: Compounds are also screened in an adenosine uptake functional cellular assay using the protocol described below:
Adenosine uptake activity was determined by monitoring the accumulation of tritiated adenosine into HeLa cells (ATCC catalog #CCL-2) using a PMT-based radiometric detection instrument. In this assay, the potency (IC50) of each compound was determined from a ten point (1:3 serial dilution; final compound concentration range in assay from 10 μM to 0.032 nM) titration curve using the following outlined procedure. To each well of a 96-well CytoStar-T scintillating microplate (Perkin Elmer Catalog #RPNQ0163), 25 000 HeLa cells in 100 μL of growth medium comprising: Minimum Essential Media (Life Technologies Catalog #11095-080)+10% (v/v) foetal bovine serum (FBS; Sigma Aldrich Catalog #F2442) was added. These cells were incubated overnight at 37° C. in a humidified atmosphere with 5% (v/v) CO2. After this time the growth medium was removed and replaced with 40 μL assay medium comprising: Hanks balanced salts solution (HBSS; Thermo Fisher Catalog # SH30268.01)+5% (v/v) FBS. Compound stock solutions in DMSO were diluted in assay medium to 2.5× final compound concentration maintaining a constant DMSO concentration of 0.25% (v/v). 40 μL of compound in assay medium was dispensed into individual wells of the Cytostar-T plates and the plates were incubated for 30 minutes under ambient laboratory conditions. Following this incubation, 20 μL of 500 nM [^3H] adenosine (American Radiolabeled Chemicals Inc. Catalog #ART0287) in assay medium was added and incubated for a further 60 minutes under ambient laboratory conditions. The amount of radiolabel accumulation was then determined using a Perkin Elmer Topcount NXT microplate reader. In brief, HeLa cells adhere to the bottom of the Cytostar-T plate, uptake of [^3H]adenosine into these cells brings the radiolabel into sufficient proximity to excite the scintillant in the base of the plates. These events are captured by single PMT, time-resolved coincidence counting. IC50 values were determined by 4 parameter robust fit of counts per second values vs. (Log10)) compound concentrations.

Row | SMILES | IC50 [1] [nM] | IC50 [2] [nM]
1 | CCOc1cc(C(=O)Nc2cc(C(F)(F)F)n(C)n2)ccc1-c1nc([C@H]2CN(C(=O)C3CC3)[C@@H](C)CO2)n2c(Cl)cnc(N)c12 [Example 5, 4-{8-amino-5-chloro-3-[(2R,5S)-4-(cyclopropylcarbonyl)-5-methylmorpholin-2-yl]imidazo[1,5-a]pyrazin-1-yl}-3-ethoxy-N-[1-methyl-5-(trifluoromethyl)-1H-pyrazol-3-yl]benzamide] | 7.14 | ≥ 10000
2 | CCOc1cc(C(=O)Nc2cc(C(F)(F)F)n(C)n2)ccc1-c1nc([C@H]2CN(C(=O)[C@H](C)O)[C@@H](C)CO2)n2c(Cl)cnc(N)c12 [Example 6, 4-(8-amino-5-chloro-3-{(2R,5S)-4-[(2S)-2-hydroxypropanoyl]-5-methylmorpholin-2-yl}imidazo[1,5-a]pyrazin-1-yl)-3-ethoxy-N-[1-methyl-5-(trifluoromethyl)-1H-pyrazol-3-yl]benzamide] | 5.73 | ≥ 10000
3 | CCOc1cc(C(=O)Nc2cc(C(F)(F)F)ccn2)ccc1-c1nc([C@H]2CN(C(=O)C(C)C)[C@@H](C)CO2)n2c(Cl)cnc(N)c12 [Example 7, 4-{8-amino-5-chloro-3-[(2R,5S)-5-methyl-4-(2-methylpropanoyl)morpholin-2-yl]imidazo[1,5-a]pyrazin-1-yl}-3-ethoxy-N-[4-(trifluoromethyl)pyridin-2-yl]benzamide] | 1.67 | ≥ 10000
4 | CCc1cnc(N)c2c(-c3ccc(C(=O)Nc4cc(C(F)(F)F)ccn4)cc3OC)nc([C@H]3CN(C(=O)C4CC4)[C@@H](C)CO3)n12 [Example 9, 4-{8-amino-3-[(2R,5S)-4-(cyclopropylcarbonyl)-5-methylmorpholin-2-yl]-5-ethylimidazo[1,5-a]pyrazin-1-yl}-3-methoxy-N-[4-(trifluoromethyl)pyridin-2-yl]benzamide] | 3.76 | 2680
5 | COc1cc(C(=O)Nc2cc(C(F)(F)F)ccn2)ccc1-c1nc([C@H]2CN(C(=O)[C@H](C)OC)[C@@H](C)CO2)n2c(Cl)cnc(N)c12 [Example 13, 4-(8-amino-5-chloro-3-{(2R,5S)-4-[(2S)-2-methoxypropanoyl]-5-methylmorpholin-2-yl}imidazo[1,5-a]pyrazin-1-yl)-3-methoxy-N-[4-(trifluoromethyl)pyridin-2-yl]benzamide] | 3.89 | 1710
6 | COc1cc(C(=O)Nc2cc(C(F)(F)F)ccn2)ccc1-c1nc([C@H]2CN(C(=O)[C@@H](C)O)[C@@H](C)CO2)n2c(Cl)cnc(N)c12 [Example 14, 4-(8-amino-5-chloro-3-{(2R,5S)-4-[(2R)-2-hydroxypropanoyl]-5-methylmorpholin-2-yl}imidazo[1,5-a]pyrazin-1-yl)-3-methoxy-N-[4-(trifluoromethyl)pyridin-2-yl]benzamide] | 2.04 | 1690
7 | COc1cc(C(=O)Nc2cc(C(F)(F)F)ccn2)ccc1-c1nc([C@H]2CN(C(=O)C(C)C)[C@@H](C)CO2)n2c(Cl)cnc(N)c12 [Example 15, 4-{8-amino-5-chloro-3-[(2R,5S)-5-methyl-4-(2-methylpropanoyl)morpholin-2-yl]imidazo[1,5-a]pyrazin-1-yl}-3-methoxy-N-[4-(trifluoromethyl)pyridin-2-yl]benzamide] | 4.14 | 3260
8 | COc1cc(C(=O)Nc2cc(C(F)(F)F)ccn2)ccc1-c1nc([C@H]2CN(C(C)=O)[C@@H](C)CO2)n2c(Cl)cnc(N)c12 [Example 17, 4-{3-[(2R,5S)-4-acetyl-5-methylmorpholin-2-yl]-8-amino-5-chloroimidazo[1,5-a]pyrazin-1-yl}-3-methoxy-N-[4-(trifluoromethyl)pyridin-2-yl]benzamide] | 2.27 | 1620
9 | COc1cc(C(=O)Nc2cc(C(F)(F)F)ccn2)ccc1-c1nc([C@H]2CN(C(=O)C3(C)CC3)[C@@H](C)CO2)n2c(Cl)cnc(N)c12 [Example 18, 4-(8-amino-5-chloro-3-{(2R,5S)-5-methyl-4-[(1-methylcyclopropyl)carbonyl]morpholin-2-yl}imidazo[1,5-a]pyrazin-1-yl)-3-methoxy-N-[4-(trifluoromethyl)pyridin-2-yl]benzamide] | 2.8 | 3230

Compounds with a lower IC50 [1], results first:

Row | IC50 [1] [nM] | IC50 [2] [nM] | SMILES
10 | 1.43 | 7270 | CCOc1cc(C(=O)Nc2cc(C(F)(F)F)ccn2)ccc1-c1nc([C@H]2CN(C(=O)[C@H](C)OC)[C@@H](C)CO2)n2c(Cl)cnc(N)c12 [Example 21, 4-(8-amino-5-chloro-3-{(2R,5S)-4-[(2S)-2-methoxypropanoyl]-5-methylmorpholin-2-yl}imidazo[1,5-a]pyrazin-1-yl)-3-ethoxy-N-[4-(trifluoromethyl)pyridin-2-yl]benzamide]
11 | 1.42 | 3120 | CCOc1cc(C(=O)Nc2cc(C(F)(F)F)ccn2)ccc1-c1nc([C@H]2CN(C(=O)[C@@H](C)O)[C@@H](C)CO2)n2c(Cl)cnc(N)c12 [Example 11, 4-(8-amino-5-chloro-3-{(2R,5S)-4-[(2R)-2-hydroxypropanoyl]-5-methylmorpholin-2-yl}imidazo[1,5-a]pyrazin-1-yl)-3-ethoxy-N-[4-(trifluoromethyl)pyridin-2-yl]benzamide]
12 | 1.36 | 3910 | CCOc1cc(C(=O)Nc2cc(C(F)(F)F)ccn2)ccc1-c1nc([C@H]2CN(C(C)=O)[C@@H](C)CO2)n2c(Cl)cnc(N)c12 [Example 20, 4-{3-[(2R,5S)-4-acetyl-5-methylmorpholin-2-yl]-8-amino-5-chloroimidazo[1,5-a]pyrazin-1-yl}-3-ethoxy-N-[4-(trifluoromethyl)pyridin-2-yl]benzamide]
13 | 1.25 | 2790 | CCC(=O)N1C[C@H](c2nc(-c3ccc(C(=O)Nc4cc(C(F)(F)F)ccn4)cc3OC)c3c(N)ncc(Cl)n23)OC[C@@H]1C [Example 16, 4-{8-amino-5-chloro-3-[(2R,5S)-5-methyl-4-propanoylmorpholin-2-yl]imidazo[1,5-a]pyrazin-1-yl}-3-methoxy-N-[4-(trifluoromethyl)pyridin-2-yl]benzamide]
14 | 1.23 | ≥ 10000 | CCOc1cc(C(=O)Nc2cc(C(F)(F)F)ccn2)ccc1-c1nc([C@H]2CN(C(=O)CC)[C@@H](C)CO2)n2c(Cl)cnc(N)c12 [Example 19, 4-{8-amino-5-chloro-3-[(2R,5S)-5-methyl-4-propanoylmorpholin-2-yl]imidazo[1,5-a]pyrazin-1-yl}-3-ethoxy-N-[4-(trifluoromethyl)pyridin-2-yl]benzamide]
15 | 1.21 | 4530 | CCOc1cc(C(=O)Nc2cc(C(F)(F)F)ccn2)ccc1-c1nc([C@H]2CN(C(=O)[C@H](C)O)[C@@H](C)CO2)n2c(Cl)cnc(N)c12 [Example 22, 4-(8-amino-5-chloro-3-{(2R,5S)-4-[(2S)-2-hydroxypropanoyl]-5-methylmorpholin-2-yl}imidazo[1,5-a]pyrazin-1-yl)-3-ethoxy-N-[4-(trifluoromethyl)pyridin-2-yl]benzamide]
16 | 1.19 | ≥ 10000 | CCOc1cc(C(=O)Nc2cc(C(F)(F)F)ccn2)ccc1-c1nc([C@H]2CN(C(=O)C3CC3)[C@@H](C)CO2)n2c(Cl)cnc(N)c12 [Example 8, 4-{8-amino-5-chloro-3-[(2R,5S)-4-(cyclopropylcarbonyl)-5-methylmorpholin-2-yl]imidazo[1,5-a]pyrazin-1-yl}-3-ethoxy-N-[4-(trifluoromethyl)pyridin-2-yl]benzamide]
17 | 1.1 | ≥ 10000 | CCOc1cc(C(=O)Nc2cc(C(F)(F)F)ccn2)ccc1-c1nc([C@H]2CN(C(=O)C3(C)CC3)[C@@H](C)CO2)n2c(Cl)cnc(N)c12 [Example 12, 4-(8-amino-5-chloro-3-{(2R,5S)-5-methyl-4-[(1-methylcyclopropyl)carbonyl]morpholin-2-yl}imidazo[1,5-a]pyrazin-1-yl)-3-ethoxy-N-[4-(trifluoromethyl)pyridin-2-yl]benzamide]
18 | 0.528 | 1200 | C=Cc1cnc(N)c2c(-c3ccc(C(=O)Nc4cc(C(F)(F)F)ccn4)cc3OC)nc([C@H]3CN(C(=O)C4CC4)[C@@H](C)CO3)n12 [Example 10, 4-{8-amino-3-[(2R,5S)-4-(cyclopropylcarbonyl)-5-methylmorpholin-2-yl]-5-ethenylimidazo[1,5-a]pyrazin-1-yl}-3-methoxy-N-[4-(trifluoromethyl)pyridin-2-yl]benzamide]
